From patent publication US20240274226A1, “MOLECULAR EVALUATION METHODS” (UNIVERSITY COLLEGE DUBLIN, priority 2021, published 2024)
Where “and” joins values, the source holds several entries; their conditions need not be identical. Identical values can stand only once.

Tests used:
phospho-Trk [1] = test: Phospho-Trk activity by Western blotting, TrkB cells; assay type: cell-based, human; settings: single replicates
Protocol: (§1) These antibodies detect phosphorylation sites that change protein activities or protein abundances. We measured pathway activities in untreated cells and cells treated with NGF (TrkA ligand) or BDNF (TrkB ligand) for 10 or 45 minutes. After normalization we calculated the fold changes in protein phosphorylation levels or abundances producing a data point for each protein.

SH-SY5Y-TrkB [2] = test: cSTAR analysis of RPPA perturbation data (STV dot product P, DPD output S), TrkB cells; assay type: cell-based, human; settings: SH-SY5Y-TrkB, ligand BDNF, 45 minutes, calculated from RPPA data
Excerpt: (§2) Thus, we use this dimensionality reduced STV for estimating the network effects and biological outcomes of experimental perturbations. For each perturbation we determine a perturbation vector that connects the centroids of the point clouds that have been obtained before and after the perturbation. This vector changes the cell phenotype when it pushes the centroid of the original point cloud across the plane that separates different cell states, stabilizes a cell state when moving the centroid away from the separation plane, or has no effect when it is (nearly) parallel to the separation plane.
(§3) These outcomes can be quantified by determining the dot product (P) of the perturbation vector and the dimensionality reduced STV.
TrkB cells were treated with the p90RSK inhibitor BI-D1870. Data points were acquired corresponding to 45 min 100 ng/ml GF stimulation, and these were projected into the first 3 principal components in order to calculate the point cloud centroids. For clarity, only the centroids are shown in FIG. 7, corresponding to: TrkA 45 minute NGF, TrkB 45 minute BDNF before perturbation, and the perturbed centroid TrkB RSKi 45 minute BDNF.
(§4) For a correct interpretation of perturbation data using the STV, we have to exclude the analytes that composed the modules of our core signaling network. Accordingly, the dimensionality of the molecular dataspace where the STV and perturbation vectors are calculated is reduced from 115 to 70, due to 45 analytes from Table S1A, related to the five proteins flagged in Table S3, being allocated to core network components, leaving the remaining 70 analytes to defined the reduced dimensionality dataspace.
(§5) Let A with the radius-vector {right arrow over (x)}A be the centroid of the point cloud Ai, corresponding to the unperturbed state 1. Let Apert with the radius-vector {right arrow over (x)}Apert be the centroid of the point cloud (Ai^pert), corresponding to the perturbed state 1. Then the perturbation vector is defined as,
(§6) The projection P of the perturbation vector {right arrow over (P)} on the STV ({right arrow over (s)}) is obtained as a dot product of these two vectors,
(§7) In the molecular dataspace, we consider the STV as a vector {right arrow over (s)} of unit length directed from a centroid of a differentiation TrkA point cloud to a centroid of a proliferation TrkB point cloud. We now define the output of the DPD module as the S value,
(§8) In this definition, the direction of the vector {right arrow over (n)}, which is orthogonal to the separation hyperplane, […]. Then, the DPD value (S) is positive for proliferation TrkB points and negative for differentiation TrkA points.
(§9) Using the STV ({right arrow over (s)}), a perturbation vector ({right arrow over (P)}) and the unit length vector ({right arrow over (n)}) orthogonal to the separation hyperplane, we can calculate how the DPD value changes following each inhibitor perturbation. The DPD values, determined for the centroids of unperturbed (A) and perturbed (Apert) states, S and Spert, respectively, are the following (see Eq. 9),
(§10) In order to reconstruct the posterior network, we used the drug perturbations described in Table 1, measuring 10 and 45 minute timepoints in TrkA and TrkB cells stimulated with NGF or BDNF, respectively.

phospho-Trk [3] = test: Phospho-Trk activity by Western blotting, TrkA cells; assay type: cell-based, human; settings: single replicates
Protocol: as §1

SH-SY5Y-TrkB [4] = test: Differentiation of TrkB cells, live cell images at 72 hours; assay type: cell-based, human; settings: SH-SY5Y-TrkB, ligand BDNF, 72 hours
Protocol: FIG. 45 is a live cell image of TrkB cells stimulated with BDNF taken at 72 hours. FIG. 46 is a live cell image of BDNF-stimulated TrkB cells treated with 0.2 μM Trametinib taken at 72 hours. FIG. 47 is a live cell image of BDNF-stimulated TrkB cells treated with 2.5 μM Gefitinib taken at 72 hours. […] FIG. 49 is an additional experiment, being a live cell image of BDNF-stimulated TrkB cells treated with a combination of 2.5 μM Gefitinib and 0.05 μM Trametinib taken at 72 hours.

SH-SY5Y-TrkA [5] = test: Differentiation of TrkA cells, live cell images at 72 hours; settings: SH-SY5Y-TrkA, ligand NGF, 72 hours
Protocol: SH-SY5Y cells stably expressing TrkA or TrkB receptors were stimulated with 100 ng/ml NGF or BDNF, respectively. Differentiation and proliferation were assessed 72 hours after growth factor treatment.
In FIGS. 35A-F, the live cell images are accompanied by bar plots showing the percentage of differentiated cells. The percentages were obtained by examining three images for each set of conditions, and counting the total number of cells and the number of differentiated cells.
FIG. 52 is a bar plot showing the percentage of differentiated cells for different treatments, measured by counting cells in images and calculating the ratio of differentiated cells to total cells.

SH-SY5Y-TrkA [6] = test: cSTAR analysis of RPPA perturbation data (STV dot product P, DPD output S), TrkA cells; assay type: cell-based, human; settings: ligand NGF, 45 minutes, calculated from RPPA data
Excerpt: as §2, §3, §4, §5, §6, §7, §8, §9, §10

Structure (SMILES): Oc1c2ccccc2c2c3c(cccc13)N=N2 [Trk inhibitor, SP600125]
- phospho-Trk (phospho-Trk [1]; 10 min ligand stimulation): 3.716 and 1.408
- phospho-Trk (phospho-Trk [1]; 45 min ligand stimulation): 3.539
- Change in the DPD output ΔS (SH-SY5Y-TrkB [2]): −9.6 ± 0.6
- DPD output S (SH-SY5Y-TrkB [2]): −3.84 ± 0.03
- phospho-Trk (phospho-Trk [3]; 10 min ligand stimulation): 0.8871 and 0.6065
- phospho-Trk (phospho-Trk [3]; 45 min ligand stimulation): 0.724
- Experimentally measured percentage of differentiated cells (SH-SY5Y-TrkB [4]): 55% ± 4%
- Experimentally measured percentage of differentiated cells (SH-SY5Y-TrkA [5]): 64.4% ± 2.5%
- Change in the DPD output ΔS (SH-SY5Y-TrkA [6]): −2.53 ± 0.35
- DPD output S (SH-SY5Y-TrkA [6]): −4.84 ± 0.16
